Experiment [1] concerns the target T1, 3-oxoacyl-[acyl-carrier-protein] synthase 1 (Escherichia coli K-12) (UniProt P0A953).
T1 sequence (whole entry): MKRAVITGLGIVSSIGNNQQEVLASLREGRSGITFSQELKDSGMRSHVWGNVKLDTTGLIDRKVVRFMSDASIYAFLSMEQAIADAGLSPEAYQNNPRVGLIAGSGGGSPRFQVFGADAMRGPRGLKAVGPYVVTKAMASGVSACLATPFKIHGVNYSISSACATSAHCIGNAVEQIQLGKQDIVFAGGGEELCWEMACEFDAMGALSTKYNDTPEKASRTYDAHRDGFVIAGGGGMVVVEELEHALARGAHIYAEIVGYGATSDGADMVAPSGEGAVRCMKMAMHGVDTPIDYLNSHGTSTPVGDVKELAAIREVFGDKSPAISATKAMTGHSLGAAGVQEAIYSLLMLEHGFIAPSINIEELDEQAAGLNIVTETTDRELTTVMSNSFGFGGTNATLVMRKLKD
Description: Inhibitory activity against FabB from Escherichia coli ANSI at 100 uM.

Experiment [2] concerns the target T2, 3-oxoacyl-[acyl-carrier-protein] synthase 2 (Mycobacterium tuberculosis) (UniProt P9WQD7).
T2 sequence (whole entry): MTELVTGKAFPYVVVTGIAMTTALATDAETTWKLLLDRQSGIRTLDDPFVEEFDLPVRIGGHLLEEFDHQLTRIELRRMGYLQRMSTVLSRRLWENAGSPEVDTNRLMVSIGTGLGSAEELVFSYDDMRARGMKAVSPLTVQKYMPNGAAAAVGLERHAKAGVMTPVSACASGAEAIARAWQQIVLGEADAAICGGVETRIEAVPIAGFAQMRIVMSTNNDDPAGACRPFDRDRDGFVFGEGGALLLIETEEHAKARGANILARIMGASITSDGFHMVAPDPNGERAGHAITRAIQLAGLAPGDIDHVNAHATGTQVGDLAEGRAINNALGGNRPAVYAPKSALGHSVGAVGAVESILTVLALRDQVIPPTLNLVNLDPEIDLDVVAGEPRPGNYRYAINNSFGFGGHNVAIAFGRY
The experiment can be described thus: Inhibitory activity against KasB from Mycobacterium tuberculosis H37Rv at 100 uM.

For experiment [3], the system named is Mycobacterium tuberculosis. Description: Inhibitory activity against Mycobacterium tuberculosis H37Rv. It is filed as functional.
Experiment [4] addresses T3, Fatty acid synthase (Homo sapiens, UniProt P49327). Description: Inhibitory activity against human FAS1 at 100 uM.
Target sequence in this assay (P49327 whole entry, looked up): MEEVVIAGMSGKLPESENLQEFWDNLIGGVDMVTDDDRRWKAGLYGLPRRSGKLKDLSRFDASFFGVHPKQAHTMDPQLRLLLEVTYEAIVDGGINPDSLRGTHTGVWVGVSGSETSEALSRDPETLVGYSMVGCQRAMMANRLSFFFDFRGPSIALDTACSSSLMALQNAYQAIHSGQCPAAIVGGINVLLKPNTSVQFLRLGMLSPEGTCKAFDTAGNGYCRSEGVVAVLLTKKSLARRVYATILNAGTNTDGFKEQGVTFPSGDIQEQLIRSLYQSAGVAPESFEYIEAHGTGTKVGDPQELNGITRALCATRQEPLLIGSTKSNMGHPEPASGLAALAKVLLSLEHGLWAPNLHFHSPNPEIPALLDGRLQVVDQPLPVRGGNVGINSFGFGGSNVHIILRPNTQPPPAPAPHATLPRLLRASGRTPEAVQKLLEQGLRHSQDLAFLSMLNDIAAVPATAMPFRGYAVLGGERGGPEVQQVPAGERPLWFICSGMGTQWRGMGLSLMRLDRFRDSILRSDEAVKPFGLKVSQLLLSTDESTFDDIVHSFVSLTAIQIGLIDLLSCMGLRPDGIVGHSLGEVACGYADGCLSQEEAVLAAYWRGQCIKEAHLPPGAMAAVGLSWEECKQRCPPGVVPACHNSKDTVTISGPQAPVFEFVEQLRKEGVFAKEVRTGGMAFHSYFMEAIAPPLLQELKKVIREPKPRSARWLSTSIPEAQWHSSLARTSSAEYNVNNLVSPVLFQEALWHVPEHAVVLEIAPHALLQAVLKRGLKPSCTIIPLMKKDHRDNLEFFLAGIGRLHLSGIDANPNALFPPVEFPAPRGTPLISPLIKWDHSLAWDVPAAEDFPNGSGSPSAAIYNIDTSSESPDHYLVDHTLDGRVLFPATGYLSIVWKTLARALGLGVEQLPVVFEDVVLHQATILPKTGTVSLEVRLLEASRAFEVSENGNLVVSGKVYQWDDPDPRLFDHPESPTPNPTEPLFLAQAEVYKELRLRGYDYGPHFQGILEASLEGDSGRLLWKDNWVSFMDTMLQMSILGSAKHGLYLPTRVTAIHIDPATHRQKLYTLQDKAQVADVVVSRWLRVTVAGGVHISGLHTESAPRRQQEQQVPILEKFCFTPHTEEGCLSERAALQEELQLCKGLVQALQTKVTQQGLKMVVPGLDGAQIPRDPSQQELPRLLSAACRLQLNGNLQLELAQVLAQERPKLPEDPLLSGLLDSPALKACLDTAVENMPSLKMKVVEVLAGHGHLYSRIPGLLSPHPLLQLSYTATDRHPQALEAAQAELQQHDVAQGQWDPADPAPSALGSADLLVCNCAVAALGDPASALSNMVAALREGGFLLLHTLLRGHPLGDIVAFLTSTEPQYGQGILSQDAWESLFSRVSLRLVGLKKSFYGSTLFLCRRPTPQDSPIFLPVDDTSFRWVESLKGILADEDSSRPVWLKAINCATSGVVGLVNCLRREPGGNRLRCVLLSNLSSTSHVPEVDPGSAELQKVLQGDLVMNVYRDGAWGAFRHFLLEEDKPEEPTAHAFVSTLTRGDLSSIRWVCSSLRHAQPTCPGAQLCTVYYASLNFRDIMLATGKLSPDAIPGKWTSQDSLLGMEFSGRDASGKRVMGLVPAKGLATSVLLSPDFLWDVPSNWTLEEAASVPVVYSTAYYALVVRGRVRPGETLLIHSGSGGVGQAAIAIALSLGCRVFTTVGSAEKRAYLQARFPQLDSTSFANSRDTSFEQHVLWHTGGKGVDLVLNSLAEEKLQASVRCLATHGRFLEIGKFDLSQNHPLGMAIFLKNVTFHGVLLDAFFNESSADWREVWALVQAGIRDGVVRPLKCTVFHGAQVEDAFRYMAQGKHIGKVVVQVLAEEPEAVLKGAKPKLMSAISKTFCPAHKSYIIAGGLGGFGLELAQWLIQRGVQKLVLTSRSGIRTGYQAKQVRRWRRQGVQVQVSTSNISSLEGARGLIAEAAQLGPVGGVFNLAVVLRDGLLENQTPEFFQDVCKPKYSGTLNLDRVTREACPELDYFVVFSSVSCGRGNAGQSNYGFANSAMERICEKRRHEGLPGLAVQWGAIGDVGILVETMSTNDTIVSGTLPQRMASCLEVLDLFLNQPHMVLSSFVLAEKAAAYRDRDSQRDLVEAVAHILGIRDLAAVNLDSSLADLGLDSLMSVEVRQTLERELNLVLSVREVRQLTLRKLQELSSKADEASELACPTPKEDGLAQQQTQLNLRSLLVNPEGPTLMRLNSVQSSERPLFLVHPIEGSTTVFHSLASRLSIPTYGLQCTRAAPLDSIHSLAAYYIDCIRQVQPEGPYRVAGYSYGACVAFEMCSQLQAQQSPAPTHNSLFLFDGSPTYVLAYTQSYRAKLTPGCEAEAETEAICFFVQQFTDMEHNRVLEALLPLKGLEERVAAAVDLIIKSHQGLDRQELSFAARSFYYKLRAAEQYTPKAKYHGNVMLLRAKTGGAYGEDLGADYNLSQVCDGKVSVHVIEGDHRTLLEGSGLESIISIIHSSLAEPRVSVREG
Experiment [5] deals with T4, 3-oxoacyl-[acyl-carrier-protein] synthase 1 (Mycobacterium tuberculosis) (UniProt P9WQD9).
T4 sequence (whole entry): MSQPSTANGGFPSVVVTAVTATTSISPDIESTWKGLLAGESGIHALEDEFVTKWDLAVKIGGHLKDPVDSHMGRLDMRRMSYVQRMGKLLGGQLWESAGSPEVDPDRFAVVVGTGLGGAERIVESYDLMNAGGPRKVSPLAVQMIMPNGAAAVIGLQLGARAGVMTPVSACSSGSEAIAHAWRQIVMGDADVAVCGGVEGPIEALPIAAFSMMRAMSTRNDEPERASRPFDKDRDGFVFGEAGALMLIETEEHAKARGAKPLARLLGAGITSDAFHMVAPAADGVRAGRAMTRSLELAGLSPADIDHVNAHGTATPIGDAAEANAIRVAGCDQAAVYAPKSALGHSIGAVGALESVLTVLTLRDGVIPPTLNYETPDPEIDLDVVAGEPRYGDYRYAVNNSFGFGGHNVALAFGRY
Description: Inhibitory activity against KasA from Mycobacterium tuberculosis H37Rv at 100 uM.

For experiment [6], the system named is Escherichia coli. Description: Inhibitory activity against Escherichia coli ANSI. It is filed as functional.
Experiment [7] addresses T5, Mycobacterial beta-ketoacyl-[acyl-carrier-protein] synthase III (Mycobacterium tuberculosis) (UniProt P9WNG3).
T5 sequence (whole entry): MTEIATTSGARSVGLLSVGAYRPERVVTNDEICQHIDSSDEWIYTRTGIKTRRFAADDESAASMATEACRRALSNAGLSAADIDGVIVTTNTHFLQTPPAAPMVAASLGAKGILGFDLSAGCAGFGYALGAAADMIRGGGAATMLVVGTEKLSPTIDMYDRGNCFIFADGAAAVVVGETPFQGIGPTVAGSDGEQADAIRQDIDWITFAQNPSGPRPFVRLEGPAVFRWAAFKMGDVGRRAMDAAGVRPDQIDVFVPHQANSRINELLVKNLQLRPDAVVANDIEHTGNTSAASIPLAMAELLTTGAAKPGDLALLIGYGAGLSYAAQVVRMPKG
The experiment can be described thus: Inhibitory activity against FabH from Mycobacterium tuberculosis H37Rv at 100 uM.

Experiment [8] concerns the target T6, 3-oxoacyl-[acyl-carrier-protein] synthase 3 (Escherichia coli) (UniProt C3TDZ2).
T6 sequence (whole entry): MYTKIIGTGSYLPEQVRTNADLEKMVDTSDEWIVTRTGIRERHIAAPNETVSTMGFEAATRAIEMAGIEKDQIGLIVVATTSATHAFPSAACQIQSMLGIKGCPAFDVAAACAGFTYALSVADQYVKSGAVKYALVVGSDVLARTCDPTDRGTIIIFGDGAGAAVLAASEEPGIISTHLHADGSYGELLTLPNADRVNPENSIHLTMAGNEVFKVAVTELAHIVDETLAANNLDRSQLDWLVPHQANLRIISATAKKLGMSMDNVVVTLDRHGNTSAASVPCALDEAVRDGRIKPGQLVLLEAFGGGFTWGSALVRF
The experiment can be described thus: Inhibitory activity against FabH from Escherichia coli ANSI at 100 uM.

In experiment [9] the target is wild-type apo-KasA (Mycobacterium tuberculosis, UniProt P9WQD9). The experiment can be described thus: Inhibitory activity against KasA from Mycobacterium tuberculosis H37Rv.
For experiment [10], the target named is T7, 3-oxoacyl-[acyl-carrier-protein] synthase 2 (Mycobacterium tuberculosis, UniProt P9WQD7).
T7 sequence (P9WQD7 whole entry): T2 sequence (whole entry)
The experiment can be described thus: Inhibitory activity against KasB from Mycobacterium tuberculosis H37Rv.

In experiment [11] the target is T8, 3-oxoacyl-[acyl-carrier-protein] synthase 1 (Escherichia coli K-12, UniProt P0A953).
T8 sequence (P0A953 whole entry): T1 sequence (whole entry)
Description: Inhibitory activity against FabB from Escherichia coli ANSI.

The target of experiment [12] is T9, 3-oxoacyl-[acyl-carrier-protein] synthase 3 (Escherichia coli, UniProt C3TDZ2).
T9 sequence (C3TDZ2 whole entry): T6 sequence (whole entry)
Description: Inhibitory activity against FabH from Escherichia coli ANSI.

For experiment [13], the target named is T10, Mycobacterial beta-ketoacyl-[acyl-carrier-protein] synthase III (Mycobacterium tuberculosis, UniProt P9WNG3).
T10 sequence (P9WNG3 whole entry): T5 sequence (whole entry)
Description: Inhibitory activity against FabH from Mycobacterium tuberculosis H37Rv.

For experiment [14], the target named is T3, Fatty acid synthase. The experiment can be described thus: Inhibitory activity against human FAS1.
Target sequence in this assay (P49327 whole entry): as the sequence (P49327 whole entry, looked up) above

≈ marks a conversion by molar mass, not a printed value. Calls of active or inactive are those of the source. The calls are words filed in the database; no cut-off is given here.

As for `C=CC(C)C[C@@]1(C)SC(O)=C(C)C1=O` (stereo partly specified), the inhibition entry in experiment [1], in [2], in experiment [4] and in experiment [5] was “inactive” in each case. In addition, the values for the minimal inhibitory concentration (MIC) in [3] and in experiment [6] were over 1000 µM and over 200 µM, respectively.

As for `C=CCCCCC1(C)SC(=O)C(C)=C1O` (stereo unspecified), the inhibition result in [1], in experiment [7], in [2] and in experiment [8] was “inactive” throughout. The minimum inhibitory concentration (MIC) (commonly the lowest concentration found to suppress growth) in experiment [3] is 1000 µM (≈ 226 µg/mL); in [6], over 1000 µM. The half-inhibitory concentration (IC50) (usually the point on the concentration scale where inhibition reaches its midpoint) in experiment [9] is over 100 µM. The inhibition (as a rule, the share of the control response that was lost under treatment) in experiment [5] was under 30%.

Regarding `C/C=C/C(C)=C/[C@@]1(C)SC(O)=C(C)C1=O`, the half-inhibitory concentration (IC50) was found to be 400 µM in [10], 50 µM in experiment [9] and 500 µM in experiment [11]. Further, the minimal inhibitory concentration (MIC) came to 1000 µM (≈ 224 µg/mL) in [3] and 200 µM (≈ 44.9 µg/mL) in experiment [6]. For the same molecule, in [4], the inhibition entry is “inactive”.

In the case of `CCC(C)C[C@@]1(C)SC(O)=C(C)C1=O` (stereo partly specified), the inhibition result in [1], in experiment [2], in experiment [4] and in experiment [5] was “inactive” each time. Further, the MIC in [3] was over 1000 µM; in experiment [6], over 200 µM.

With `CC(C)=CCC/C(C)=C/CC/C(C)=C/CC1(C)SC(O)=C(C)C1=O` (stereo unspecified), the inhibition entry in experiment [1], in [7] and in experiment [5] was “inactive” in each case. Further, the concentration for half-maximal inhibition (IC50) in experiment [12] and in experiment [10] was over 100 µM each time. Also, the inhibition in experiment [2] and in experiment [8] was under 30% throughout. The minimal inhibitory concentration (MIC) in [3] was over 1000 µM; in experiment [6], 200 µM (≈ 69.7 µg/mL).

As to `CC/C(C)=C/[C@@]1(C)SC(O)=C(C)C1=O`, the inhibition entry in [1], in experiment [2], in experiment [4] and in [5] was “inactive” throughout. Moreover, the MIC in [3] was over 1000 µM; in [6] it was over 200 µM.

With `CCCCCCCCC1(C)SC(O)=C(C)C1=O` (stereo unspecified), the inhibition result in experiment [1], in experiment [2] and in experiment [5] was “inactive” throughout. Moreover, the IC50 in experiment [12] and in experiment [13] was over 100 µM each time. The inhibition in [7] and in experiment [8] was under 30% each time. The minimal inhibitory concentration (MIC) in experiment [3] was over 1000 µM; in [6], 200 µM (≈ 51.3 µg/mL).

With `CC(C)=CCC1(C)SC(O)=C(C)C1=O` (stereo unspecified), the inhibition result in [1], in experiment [7], in experiment [2] and in experiment [8] was “inactive” each time. In addition, the minimum inhibitory concentration (MIC) in experiment [3] and in [6] was over 1000 µM throughout. Besides, in experiment [9], the IC50 was over 100 µM. The inhibition in experiment [5] was under 30%.

Regarding `C=C/C(C)=C/C1(C)SC(O)=C(C)C1=O` (racemic) [RAC-THIOLACTOMYCIN], the half-inhibitory concentration (IC50) in experiment [14] came out at 143 µM; in [11], 20 µM. Besides, the results for the MIC in [3] and in [6] were 125 µM (≈ 26.3 µg/mL) and 12 µM (≈ 2.52 µg/mL), respectively.

Take `C=C/C=C/C1(C)SC(=O)C(C)=C1O` (stereo unspecified): the IC50 stood at 400 µM in experiment [10], 25 µM in [9] and 500 µM in experiment [11]. Also, the figures for the MIC in experiment [3] and in [6] were 1000 µM (≈ 196 µg/mL) and 200 µM (≈ 39.3 µg/mL), respectively. Also, the inhibition result in experiment [4] is “inactive”.

As for `C=CCCCC1(C)SC(=O)C(C)=C1O` (stereo unspecified), the inhibition result in experiment [1], in [7], in experiment [2] and in experiment [8] was “inactive” in each case. The minimum inhibitory concentration (MIC) in [3] and in experiment [6] was over 1000 µM in each case. In [9], the concentration for half-maximal inhibition (IC50) was over 100 µM. Moreover, the inhibition in experiment [5] was under 30%.
